Read-outs that look alike come from different tables or passages of the source.
Assays:
mu opioid receptor (MOR) = mu opioid receptor (MOR) (Homo sapiens (Human), UniProt P35372); assay: Competitive radioligand binding at MOR ([3H] Naloxone)
Method: (§1) Receptor Binding at MOR and NMDA.
(§2) Affinities of various compounds were measured in vitro using competitive radioligand binding assays. Serial dilutions of test compounds were incubated with membranes prepared from CHO-K1 cells expressing the mu opioid receptor (MOR; for opioid receptor binding) or rat forebrain membranes (for NMDA receptor binding). 2 nM [^3H] Naloxone (MOR) or 0.2 nM [^3H] MK801 (NMDA) were used as the specific, competitive radioligands. 10 uM Naloxone (MOR), or 10 uM MK801 (NMDA) was used to determine non-specific binding. Bound radioactivity was measured using a scintillation counter & IC50 values for test compounds were determined by non-linear regression analysis using a one-site competition model (Graph Pad Prizm). Due to each test compound being solubilized in a buffered system for the assay, the results presented herein reflect the free base activity.

NMDA receptor = assay: Competitive radioligand binding at NMDA receptor ([3H] MK801), rat forebrain membranes; details: 0.2 nM [3H] MK801, reflects free base activity
Method: as §1, §2

[1] = membranes from CHO-K1 cells expressing MOR, 2 nM [3H] Naloxone, reflects free base activity, read-out: MOR IC50

COCCOCCOCCOCCOCCO[C@H]1CC[C@H]2[C@H]3Cc4ccc(OC)cc4[C@@]2(CCN3C)C1 [Compound 2, (6α)-3-methoxy-17-methyl-6-(2,5,8,11,14-pentaoxahexadecan-16-yloxy)morphinan]
IC50 (mu opioid receptor (MOR); [1]): > 1 µM
IC50 (NMDA receptor): > 10 µM

CN1CC[C@]23CCCC[C@H]2[C@H]1Cc1ccc(Nc2ccncc2)cc13 [Compound 49, 17-methyl-N-(pyridin-4-yl)morphinan-3-amine]
IC50 (mu opioid receptor (MOR)): 0.1 to 1 µM
IC50 (NMDA receptor): 0.0001 to 0.1 µM

Oc1ccc2c(c1)[C@@]13CCCC[C@H]1[C@@H](C2)N(CC1COC1)CC3 [Compound 88, 17-(oxetan-3-ylmethyl)morphinan-3-ol]
IC50 (mu opioid receptor (MOR)): 0.01 to 0.1 µM
IC50 (NMDA receptor): 1 to 10 µM

COCCOCCC(=O)Nc1ccc2c(c1)[C@@]13CCCC[C@H]1[C@@H](C2)N(C)CC3 [Compound 79, 3-(2-methoxyethoxy)-N-((4bR,8aR,9R)-11-methyl-6,7,8,8a,9,10-hexahydro-5H-9,4b-(epiminoethano)phenanthren-3-yl)propanamide]
IC50 (mu opioid receptor (MOR); [1]): > 1 µM
IC50 (NMDA receptor): > 10 µM

COCCOCCN1CC[C@]23CCCC[C@H]2[C@H]1Cc1ccc(Nc2cncc(F)c2)cc13 [Compound 104, 17-[2-(2-methoxyethoxy)ethyl]-N-(5-fluoro-pyridin-3-yl)morphinan-3-amine]
IC50 (mu opioid receptor (MOR)): 0.01 to 0.1 µM
IC50 (NMDA receptor): > 10 µM

COCCOCCOCCOCCOCCOc1cncc(Nc2ccc3c(c2)[C@@]24CCCC[C@H]2[C@@H](C3)N(C)CC4)c1 [Compound 54, (4bR,8aR,9R)—N-(5-(2,5,8,11,14-pentaoxahexadecan-16-yloxy)pyridin-3-yl)-11-methyl-6,7,8,8a,9,10-hexahydro-5H-9,4b-(epiminoethano)phenanthren-3-amine]
IC50 (mu opioid receptor (MOR); [1]): 0.01 to 0.1 µM
IC50 (NMDA receptor): > 10 µM

COCCN1CC[C@]23CCCC[C@H]2[C@H]1Cc1ccc(OC)cc13 [Compound 11, 3-methoxy-17-(2-methoxyethyl)-morphinan]
IC50 (mu opioid receptor (MOR)): 0.1 to 1 µM
IC50 (NMDA receptor): 1 to 10 µM

COCCOCCOCCO[C@H]1CCC[C@H]2[C@H]3Cc4ccc(O)cc4[C@@]12CCN3C [Compound 75, (5α)-5-{2-[2-(2-methoxyethoxy)ethoxy]ethoxy}-17-methylmorphinan-3-ol]
IC50 (mu opioid receptor (MOR); [1]): 0.01 to 0.1 µM
IC50 (NMDA receptor): > 10 µM

CN1CC[C@]23CCCC[C@H]2[C@H]1Cc1cc2ncc(N)nc2cc13 [Compound 94, (4aR,5R,12bR)-15-methyl-2,3,4,4a,5,6-hexahydro-1H-5,12b-(epiminoethano)naphtho[1,2-g]quinoxalin-10-amine]
IC50 (mu opioid receptor (MOR); [1]): > 1 µM
IC50 (NMDA receptor): 0.1 to 1 µM

CN1CC[C@]23CCCC[C@H]2[C@H]1Cc1ccc(-c2ccncc2)cc13 [Compound 45, 17-methyl-3-(pyridin-4-yl)morphinan]
IC50 (mu opioid receptor (MOR); [1]): > 1 µM
IC50 (NMDA receptor): 1 to 10 µM

CN1CC[C@]23CCCC[C@H]2[C@H]1Cc1ccc(Nc2cncnc2)cc13 [Compound 53, 17-methyl-N-(pyrimidin-5-yl)morphinan-3-amine]
IC50 (mu opioid receptor (MOR)): 0.01 to 0.1 µM
IC50 (NMDA receptor): > 10 µM

COCCNC(=O)Nc1nc2cc3c(cc2s1)C[C@@H]1[C@@H]2CCCC[C@]32CCN1C [Compound 72, 1-(2-methoxyethyl)-3-((4aR,5R,11bR)-14-methyl-2,3,4,4a,5,6-hexahydro-1H-5,11b-(epiminoethano)phenanthro[3,2-d]thiazol-9-yl)urea]
IC50 (mu opioid receptor (MOR); [1]): > 1 µM
IC50 (NMDA receptor): > 10 µM

COCCOCCOCCN1CC[C@]23CCCC[C@H]2[C@H]1Cc1ccc(OC)cc13 [Compound 13, 3-methoxy-17-{2-[2-(2-methoxyethoxy)ethoxy]ethyl}-morphinan]
IC50 (mu opioid receptor (MOR); [1]): > 1 µM
IC50 (NMDA receptor): > 10 µM

COCCOCCN1CC[C@]23CC(=O)CC[C@H]2[C@H]1Cc1ccc(OC)cc13 [Compound 5, 3-methoxy-17-[2-(2-methoxyethoxy)ethyl]morphinan-6-one]
IC50 (mu opioid receptor (MOR)): 0.1 to 1 µM
IC50 (NMDA receptor): > 10 µM

COCCOCCOc1cncc(Nc2ccc3c(c2)[C@@]24CCCC[C@H]2[C@@H](C3)N(C)CC4)c1 [Compound 48, N-{5-[2-(2-methoxyethoxy)ethoxy]pyridin-3-yl}-17-methylmorphinan-3-amine]
IC50 (mu opioid receptor (MOR); [1]): 0.01 to 0.1 µM
IC50 (NMDA receptor): > 10 µM

COCCNc1cc2c(cc1[N+](=O)[O-])C[C@@H]1[C@@H]3CCCC[C@]23CCN1C [Compound 76, N-(2-methoxyethyl)-17-methyl-2-nitromorphinan-3-amine]
IC50 (mu opioid receptor (MOR); [1]): > 1 µM
IC50 (NMDA receptor): > 10 µM

COCCOCCOc1ccccc1Nc1ccc2c(c1)[C@@]13CCCC[C@H]1[C@@H](C2)N(C)CC3 [Compound 35, N-{2-[2-(2-methoxyethoxy)ethoxy]phenyl}-17-methylmorphinan-3-amine]
IC50 (mu opioid receptor (MOR); [1]): 0.1 to 1 µM
IC50 (NMDA receptor): > 10 µM

CN1CC[C@]23CCCC[C@H]2[C@H]1Cc1cc2ccc(N)nc2cc13 [Compound 101, (4aR,5R,12bR)-15-methyl-2,3,4,4a,5,6-hexahydro-1H-5,12b-(epiminoethano)naphtho[2,1-g]quinolin-10-amine]
IC50 (mu opioid receptor (MOR); [1]): 0.01 to 0.1 µM
IC50 (NMDA receptor): 1 to 10 µM

COCCOCCOc1cnccc1Nc1ccc2c(c1)[C@@]13CCCC[C@H]1[C@@H](C2)N(C)CC3 [Compound 66, (4bR,8aR,9R)—N-(3-(2-(2-methoxyethoxy)ethoxy)pyridin-4-yl)-11-methyl-6,7,8,8a,9,10-hexahydro-5H-9,4b-(epiminoethano)phenanthren-3-amine]
IC50 (mu opioid receptor (MOR); [1]): 0.1 to 1 µM
IC50 (NMDA receptor): 1 to 10 µM

COCCOCCN1CC[C@]23CCCC[C@H]2[C@H]1Cc1ccc(-c2cn[nH]c2)cc13 [Compound 100, (4bR,8aR,9R)-11-(2-(2-methoxyethoxy)ethyl)-3-(1H-pyrazol-4-yl)-6,7,8,8a,9,10-hexahydro-5H-9,4b-(epiminoethano)phenanthrene]
IC50 (mu opioid receptor (MOR); [1]): > 1 µM
IC50 (NMDA receptor): 1 to 10 µM

COCCOCCOCCOCCOCCOCC(=O)Nc1ccc2c(c1)[C@@]13CCCC[C@H]1[C@@H](C2)N(C)CC3 [Compound 42, N-(17-methylmorphinan-3-yl)-2,5,8,11,14,17-hexaoxanonadecan-19-amide]
IC50 (mu opioid receptor (MOR); [1]): 0.1 to 1 µM
IC50 (NMDA receptor): > 10 µM

CN1CC[C@]23CCCC[C@H]2[C@H]1Cc1ccc(-c2cnc(N)nc2)cc13 [Compound 52, 5-(17-methylmorphinan-3-yl)pyrimidin-2-amine]
IC50 (mu opioid receptor (MOR); [1]): > 1 µM
IC50 (NMDA receptor): 1 to 10 µM

COCCOCCOCCNc1nc2cc3c(cc2s1)C[C@@H]1[C@@H]2CCCC[C@]32CCN1C [Compound 71, (4aR,5R,11bR)—N-(2-(2-(2-methoxyethoxy)ethoxy)ethyl)-14-methyl-2,3,4,4a,5,6-hexahydro-1H-5,11b-(epiminoethano)phenanthro[3,2-d]thiazol-9-amine]
IC50 (mu opioid receptor (MOR); [1]): 0.1 to 1 µM
IC50 (NMDA receptor): 1 to 10 µM

COCCOc1cc(O)cc2c1C[C@@H]1[C@@H]3CCCC[C@]23CCN1C [Compound 74, 1-(2-methoxyethoxy)-17-methylmorphinan-3-ol]
IC50 (mu opioid receptor (MOR); [1]): > 1 µM
IC50 (NMDA receptor): > 10 µM

COCCOCCN1CC[C@]23CCCC[C@H]2[C@H]1Cc1ccc(Nc2nccs2)cc13 [Compound 105, N-((4bR,8aR,9R)-11-(2-(2-methoxyethoxy)ethyl)-6,7,8,8a,9,10-hexahydro-5H-9,4b-(epiminoethano)phenanthren-3-yl)thiazol-2-amine]
IC50 (mu opioid receptor (MOR)): 0.1 to 1 µM
IC50 (NMDA receptor): > 10 µM

COCCOCCOc1cc(Nc2ccc3c(c2)[C@@]24CCCC[C@H]2[C@@H](C3)N(C)CC4)ccn1 [Compound 67, N-{2-[2-(2-methoxyethoxy)ethoxy]pyridin-4-yl}-17-methylmorphinan-3-amine]
IC50 (mu opioid receptor (MOR); [1]): 0.1 to 1 µM
IC50 (NMDA receptor): > 10 µM

COc1ccc(C(=O)Nc2ccc3c(c2)[C@@]24CCCC[C@H]2[C@@H](C3)N(C)CC4)cc1 [Compound 24, 4-methoxy-N-((4bR,8aR,9R)-11-methyl-6,7,8,8a,9,10-hexahydro-5H-9,4b-(epiminoethano)phenanthren-3-yl)benzamide]
IC50 (mu opioid receptor (MOR)): 0.1 to 1 µM
IC50 (NMDA receptor): > 10 µM

COCCOCCN1CC[C@]23CCCC[C@H]2[C@H]1Cc1ccc(-c2ccoc2)cc13 [Compound 106, (4bR,8aR,9R)-3-(furan-3-yl)-11-(2-(2-methoxyethoxy)ethyl)-6,7,8,8a,9,10-hexahydro-5H-9,4b-(epiminoethano)phenanthrene]
IC50 (mu opioid receptor (MOR)): 0.1 to 1 µM
IC50 (NMDA receptor): > 10 µM

CN1CC[C@]23CCCC[C@H]2[C@H]1Cc1ccc(Nc2ncccn2)cc13 [Compound 32, 17-methyl-N-(pyrimidin-2-yl)morphinan-3-amine]
IC50 (mu opioid receptor (MOR); [1]): > 1 µM
IC50 (NMDA receptor): 0.1 to 1 µM

COCCOCCOCCO[C@H]1CC[C@H]2[C@H]3Cc4ccc(OC)cc4[C@@]2(CCN3C)C1 [Compound 1, (6α)-3-methoxy-6-{2-[2-(2-methoxyethoxy)ethoxy]ethoxy}-17-methylmorphinan]
IC50 (mu opioid receptor (MOR); [1]): > 1 µM
IC50 (NMDA receptor): > 10 µM

COCCNC(=N)Nc1nc2cc3c(cc2s1)C[C@@H]1[C@@H]2CCCC[C@]32CCN1C [Compound 92, 1-(2-methoxyethyl)-3-((4aR,5R,11bR)-14-methyl-2,3,4,4a,5,6-hexahydro-1H-5,11b-(epiminoethano)phenanthro[3,2-d]thiazol-9-yl)guanidine]
IC50 (mu opioid receptor (MOR); [1]): 0.1 to 1 µM
IC50 (NMDA receptor): > 10 µM

CN1CC[C@]23CCCC[C@H]2[C@H]1Cc1cc(C#N)c(N)cc13 [Compound 103, 3-amino-17-methylmorphinan-2-carbonitrile]
IC50 (mu opioid receptor (MOR); [1]): > 1 µM
IC50 (NMDA receptor): > 10 µM

CN1CC[C@]23CCCC[C@H]2[C@H]1Cc1ccc(Nc2ccncn2)cc13 [Compound 50, 17-methyl-N-(pyrimidin-4-yl)morphinan-3-amine]
IC50 (mu opioid receptor (MOR)): 0.1 to 1 µM
IC50 (NMDA receptor): 0.0001 to 0.1 µM

Source: patent publication US10766864B2, “Morphinan derivatives for the treatment of neuropathic pain” (Nektar Therapeutics, priority 2015, dated 2020)
